Source: patent US11110082B2, “Tyrosine kinase inhibitors” (Rigel Pharmaceuticals, Inc., priority 2016, dated 2021)

Each compound was assayed against T1, MerTK (Homo sapiens, UniProt Q12866) (assay: PAKT HTRF-HUVEC assay (pAkt Ser473 HTRF after anti-human MerTK-XL stimulation)). Conditions: HUVEC cells, 1 hour compound, stimulated with anti-human MerTK-XL 1 ug/mL for 10 minutes, read-out: inhibition of MerTK.
T1 construct: Seed HUVECs (10K cells/well) in EBM-2 complete media; host or cells: HUVEC (primary human umbilical vein endothelial cells)
T1 sequence (Q12866 21-999): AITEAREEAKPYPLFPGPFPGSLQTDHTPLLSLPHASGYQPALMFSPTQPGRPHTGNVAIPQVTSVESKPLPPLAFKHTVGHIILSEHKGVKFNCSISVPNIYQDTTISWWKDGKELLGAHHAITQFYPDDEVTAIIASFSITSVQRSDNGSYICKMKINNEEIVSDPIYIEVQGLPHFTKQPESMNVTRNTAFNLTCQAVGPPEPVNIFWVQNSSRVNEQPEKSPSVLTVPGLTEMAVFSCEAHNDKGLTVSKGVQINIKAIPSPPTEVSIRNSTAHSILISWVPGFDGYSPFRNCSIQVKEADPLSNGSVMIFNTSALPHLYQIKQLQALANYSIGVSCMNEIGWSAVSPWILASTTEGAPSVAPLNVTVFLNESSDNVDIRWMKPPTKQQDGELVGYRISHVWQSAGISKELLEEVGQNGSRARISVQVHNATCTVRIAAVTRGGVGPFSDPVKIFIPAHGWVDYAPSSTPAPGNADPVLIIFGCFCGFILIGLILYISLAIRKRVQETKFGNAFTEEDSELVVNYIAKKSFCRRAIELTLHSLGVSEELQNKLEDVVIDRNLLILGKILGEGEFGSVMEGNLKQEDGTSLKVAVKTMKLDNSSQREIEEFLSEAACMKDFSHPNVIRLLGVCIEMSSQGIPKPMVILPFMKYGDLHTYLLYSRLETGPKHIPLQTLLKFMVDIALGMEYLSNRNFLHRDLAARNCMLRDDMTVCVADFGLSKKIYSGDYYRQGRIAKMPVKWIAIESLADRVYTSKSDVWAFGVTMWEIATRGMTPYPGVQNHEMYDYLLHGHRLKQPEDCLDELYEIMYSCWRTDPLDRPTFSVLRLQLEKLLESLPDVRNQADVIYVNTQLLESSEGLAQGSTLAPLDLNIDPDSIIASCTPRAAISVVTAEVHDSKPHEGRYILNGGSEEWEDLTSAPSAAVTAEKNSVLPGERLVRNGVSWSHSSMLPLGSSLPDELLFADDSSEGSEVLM
Format: cell-based
In short: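 HUVECs starved 3-4 h in basal medium, preincubated with compound 1 h at 37° C, then stimulated 10 min with cross-linked anti-human MerTK antibody (final 1 ug/mL). Lysates read for pAkt (Ser473) by HTRF; EC50 from curve fitting.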

EC50 | SMILES
352 nM | O=c1c2ccccc2c2cnc(NCCC3CC3)nc2n1[C@H]1CC[C@H](O)CC1 [Compound 120, trans-3-((2-Cyclopropylethyl)amino)-5-(4-hydroxycyclohexyl)pyrimido [4,5-c]isoquinolin-6(5H)-one]
401 nM | O=c1c2cc(CN3CC[S+]([O-])CC3)ccc2c2cnc(NCC3CC3)nc2n1[C@H]1CC[C@H](O)CC1 [Compound 165]
31.8 nM | CCCCNc1ncc2c3ccc(N4CCNCC4)cc3c(=O)n([C@H]3CC[C@H](O)CC3)c2n1 [Compound 83, trans-3-(Butylamino)-5-(4-hydroxycyclohexyl)-8-(piperazin-1-yl)pyrimido[4,5-c]isoquinolin-6(5H)-one]
72.5 nM | CC(C)(C)OC(=O)C1CCN(Cc2ccc3c(c2)c(=O)n([C@H]2CC[C@H](O)CC2)c2nc(NCC4CC4)ncc32)CC1 [Compound 201, trans-tert-Butyl 1-((3-((cyclopropylmethyl)amino)-5-(4-hydroxycyclohexyl)-6-oxo-5,6-dihydropyrimido[4,5-c]isoquinolin-8-yl)methyl)piperidine-4-carboxylate]
277 nM | CCC1(CNc2ncc3c4ccc(CN5CCN(C)CC5)cc4c(=O)n([C@H]4CC[C@H](O)CC4)c3n2)CCC1 [Compound 18, trans-3-(((1-Ethylcyclobutyl)methyl)amino)-5-(4-hydroxycyclohexyl)-8-((4-methylpiperazin-1-yl)methyl)pyrimido[4,5-c]isoquinolin-6(5H)-one]
116 nM | C[C@]1(O)CC[C@H](n2c(=O)c3cc(CN4CCOCC4)ccc3c3cnc(NCC4CC4)nc32)CC1 [Compound 46, trans-3-((Cyclopropylmethyl)amino)-5-(4-hydroxy-4-methylcyclohexyl)-8-(morpholinomethyl)pyrimido [4,5-c]isoquinolin-6(5H)-one]
97.7 nM | CCC(F)(F)CNc1ncc2c3ccc(CN4CCC5(CC4)COC5)cc3c(=O)n([C@H]3CC[C@H](O)CC3)c2n1 [Compound 197, trans-8-((2-Oxa-7-azaspiro[3.5]nonan-7-yl)methyl)-3-((2,2-difluorobutyl)amino)-5-(4-hydroxycyclohexyl)pyrimido[4,5-c]isoquinolin-6(5H)-one]
44.2 nM | CCCCNc1ncc2c3ccc(CN4CCOCC4)cc3c(=O)n([C@H]3CC[C@H](O)CC3)c2n1 [Compound 2, trans-3-(Butylamino)-5-(4-hydroxycyclohexyl)-8-(morpholinomethyl)pyrimido [4,5-c]isoquinolin-6(5H)-one]
21 nM | CCCCNc1ncc2c3ccc(N4CCN5CCC[C@H]5C4)cc3c(=O)n([C@H]3CC[C@H](O)CC3)c2n1 [Compound 73, trans-3-(Butylamino)-8-((S)-hexahydropyrrolo[1,2-a]pyrazin-2(1H)-yl)-5-((1r,4S)-4-hydroxycyclohexyl)pyrimido [4,5-c]isoquinolin-6(5H)-one]
78.4 nM | CCCCNc1ncc2c3ccc(N4CC5(COC5)C4)cc3c(=O)n([C@H]3CC[C@H](O)CC3)c2n1 [Compound 68, trans-3-(Butylamino)-5-(4-hydroxycyclohexyl)-8-(2-oxa-6-azaspiro[3.3]heptan-6-yl)pyrimido[4,5-c]isoquinolin-6(5H)-one]
115 nM | CN1CCN(c2ccc3c(c2)c(=O)n([C@H]2CC[C@H](O)CC2)c2nc(NCC4CC4)ncc32)CC1 [Compound 87, trans-3-((Cyclopropylmethyl)amino)-5-(4-hydroxycyclohexyl)-8-(4-methylpiperazin-1-yl)pyrimido[4,5-c]isoquinolin-6(5H)-one]
115 nM | CCCCNc1ncc2c3ccc(CN4CCN(C)CC4)cc3c(=O)n([C@H]3CC[C@H](C(=O)N(C)C)CC3)c2n1 [Compound 142, trans-4-(3-(Butylamino)-8-((4-methylpiperazin-1-yl)methyl)-6-oxopyrimido[4,5-c]isoquinolin-5(6H)-yl)-N,N-dimethylcyclohexane-1-carboxamide]
45.4 nM | O=c1c2cc(CN3CCC4(CC3)COC4)ccc2c2cnc(NCC3CC3)nc2n1[C@H]1CC[C@H](O)CC1 [Compound 186, trans-8-((2-Oxa-7-azaspiro[3.5]nonan-7-yl)methyl)-3-((cyclopropylmethyl)amino)-5-(4-hydroxycyclohexyl)pyrimido[4,5-c]isoquinolin-6(5H)-one]
43 nM | CCCCNc1ncc2c3ccc(CN4CCN(C)CC4)cc3c(=O)n([C@H]3CC[C@H](N)C3)c2n1 [Compound 232, 5-((1S,3S)-3-aminocyclopentyl)-3-(butylamino)-8-((4-methylpiperazin-1-yl)methyl)pyrimido[4,5-c]isoquinolin-6(5H)-one]
138 nM | CCCCNc1ncc2c3ccc(N4CCN(C)CC4)cc3c(=O)n([C@H]3CC[C@@H](O)CC3)c2n1 [Compound 63, cis-3-(Butylamino)-5-(4-hydroxycyclohexyl)-8-(4-methylpiperazin-1-yl)pyrimido[4,5-c]isoquinolin-6(5H)-one]
11900 nM | O=c1c2cc(CN3CC[N@+]4([O-])CC[C@@H]3CC4)ccc2c2cnc(NCC3CC3)nc2n1C1CCC(O)CC1 (relative stereo) [Compound 51, trans-4-((3-((Cyclopropylmethyl)amino)-5-(4-hydroxycyclohexyl)-6-oxo-5,6-dihydropyrimido[4,5-c]isoquinolin-8-yl)methyl)-1,4-diazabicyclo[3.2.2]nonane 1-oxide]
57.3 nM | CCOC1CCN(Cc2ccc3c(c2)c(=O)n(C2CCC(O)CC2)c2nc(NCC4CC4)ncc32)CC1 (stereo not shown) [Compound 144, 3-((cyclopropylmethyl)amino)-8-((4-ethoxypiperidin-1-yl)methyl)-5-((1s,4s)-4-hydroxycyclohexyl)pyrimido[4,5-c]isoquinolin-6(5H)-one]
24.2 nM | O=c1c2cc(CC3CCN(c4ccncc4)CC3)ccc2c2cnc(NCC3CC3)nc2n1[C@H]1CC[C@H](O)CC1 [Compound 218, trans-3-((Cyclopropylmethyl)amino)-5-(4-hydroxycyclohexyl)-8-((1-(pyridin-4-yl)piperidin-4-yl)methyl)pyrimido[4,5-c]isoquinolin-6(5H)-one]
10.5 nM | CCC[C@H](C)Nc1ncc2c3ccc(CN4CCC5(CC4)COC5)cc3c(=O)n([C@H]3CC[C@H](O)CC3)c2n1 [Compound 214, trans-8-((2-oxa-7-azaspiro[3.5]nonan-7-yl)methyl)-5-(4-hydroxycyclohexyl)-3-(((5)-pentan-2-yl)amino)pyrimido[4,5-c]isoquinolin-6(5H)-one]
221 nM | CCC(F)(F)CNc1ncc2c3ccc(CN4CCN(C)CC4)cc3c(=O)n([C@H]3CC[C@H](O)CC3)c2n1 [Compound 24, trans-3-((2,2-Difluorobutyl)amino)-5-(4-hydroxycyclohexyl)-8-((4-methylpiperazin-1-yl)methyl)pyrimido[4,5-c]isoquinolin-6(5H)-one]
220 nM | CCCCNc1ncc2c3ccc(N4CCC(N5CCCC5)CC4)cc3c(=O)n(C3CCC(=O)CC3)c2n1 [Compound 72, 3-(Butylamino)-5-(4-oxocyclohexyl)-8-(4-(pyrrolidin-1-yl)piperidin-1-yl)pyrimido[4,5-c]isoquinolin-6(5H)-one]
51.3 nM | O=c1c2cc(CN3CCN(CC(F)F)CC3)ccc2c2cnc(NCC3CC3)nc2n1[C@H]1CC[C@H](O)CC1 [Compound 43, trans-3-((Cyclopropylmethyl)amino)-8-((4-(2,2-difluoroethyl)piperazin-1-yl)methyl)-5-(4-hydroxycyclohexyl)pyrimido[4,5-c]isoquinolin-6(5H)-one]
221 nM | O=c1c2cc(CN3CCS(=O)(=O)CC3)ccc2c2cnc(NCC3CC3)nc2n1[C@H]1CC[C@H](O)CC1 [Compound 49, trans-3-((Cyclopropylmethyl)amino)-8-((1,1-dioxidothiomorpholino)methyl)-5-(4-hydroxycyclohexyl)pyrimido [4,5-c]isoquinolin-6(5H)-one]
289 nM | O=c1c2cc(N3CCN(CC(F)(F)F)CC3)ccc2c2cnc(NCC3CC3)nc2n1[C@H]1CC[C@H](O)CC1 [Compound 168]
45.9 nM | O=c1c2cc(CN3CCOCC3)ccc2c2cnc(NCCC3CC3)nc2n1[C@H]1CC[C@H](O)CC1 [Compound 27, trans-3-((2-Cyclopropylethyl)amino)-5-(4-hydroxycyclohexyl)-8-(morpholinomethyl)pyrimido [4,5-c]isoquinolin-6(5H)-one]
